The subject of one data set is erythrocytes. Nature of the data set: Intracellular access of the drugs in erythrocytes (LC-MS). It is filed as in vitro ADME, human. The conditions noted are these: 30 min incubation, milrinone 10 µM, amrinone 100 µM, levosimendan 1 µM. On the procedure:
Fresh (<24 h) EDTA blood from healthy donors (n = 18) was obtained and washed with Krebs-Ringer-Phosphate-Buffer containing glucose (KRPB/G, pH 7.4) and centrifuged (10 min, 1,000 g) three consecutive times. Plasma and buffy coat were removed. KRPB/G was added to the cell solution to bring it to the ratio 1:2.5. Hematocrit (Hct) was measured and adjusted with additional buffer to reach 0.44, in order to give the final Hct of 0.40 in the incubation solution. […] The reaction was stopped by placing the test tubes on ice and adding 4 ml of ice cold KRFB/G. The samples were subsequently centrifugated (5 min, 600 g), then washed with KRFB/G once more and centrifugation was repeated twice. 50 µl of the remaining red blood cell suspension was transferred to Eppendorf tubes. 50 µl 500 nM IS-Milrinone-d3 was added as an internal standard (TLC Pharmaceutical Standards Ltd.). 200 µl ZnSO4 was added to each test sample, to induce lysis of the cells, and mixed in a vortex mixer. 30 µl of the samples were used for measurement of protein concentration, the rest was mixed with 500 µl acetonitrile and centrifugated (2 min, 13400 g). Finally, 100 µl of the solution was collected for analysis using mass spectrometry (MS).
Liquid chromatography tandem mass spectrometry (LC-MS) was used to assess concentrations of the inhibitors for experiments performed to determine intracellular access of these drugs, as well as to quantify levels of cAMP/AMP and cGMP/GMP for the PDE3-and PDE5-inhibition plots. Internal standards were used, as described previously. There was a linearity from 0.2 nM to at least 2000 nM (r^2 > 0.998) for cAMP, AMP, and cGMP. For GMP, linearity was present from 2 nM to at least 2000 nM (r^2 > 0.998). Concerning PDE3-inhibitors, the linearity was found at 10 nM to at least 5,000 nM (r^2 > 0.99). Lower limit of quantification (LLOQ) was 0.2 for cAMP, cGMP, and AMP, 2 nM for GMP and 10 nM for PDE3-inhibitors (2 µl injection volume).
Intracellular concentrations of drugs were adjusted for protein concentrations in each sample. The total incubation concentrations were also adjusted for protein concentrations to evaluate the degree of access in percentage. Statistical analysis was performed using one-way ANOVA with Holm-Sidak multiple comparisons post hoc test at each temperature. ANOVA on ranks with Dunn post hoc test was used when the results were not normally distributed. The results are presented as means ± standard error of mean (SEM). p-values < 0.05 were considered significant results. Degrees of freedom (dF) is given as between group values. SigmaPlot 14.0 (Systat Software, San Jose, CA, United States) was used for all analysis, as well as creating the graphs.

Another data set addresses T1, ABCC4 (Homo sapiens, UniProt O15439).
T1 sequence (O15439 1-1325): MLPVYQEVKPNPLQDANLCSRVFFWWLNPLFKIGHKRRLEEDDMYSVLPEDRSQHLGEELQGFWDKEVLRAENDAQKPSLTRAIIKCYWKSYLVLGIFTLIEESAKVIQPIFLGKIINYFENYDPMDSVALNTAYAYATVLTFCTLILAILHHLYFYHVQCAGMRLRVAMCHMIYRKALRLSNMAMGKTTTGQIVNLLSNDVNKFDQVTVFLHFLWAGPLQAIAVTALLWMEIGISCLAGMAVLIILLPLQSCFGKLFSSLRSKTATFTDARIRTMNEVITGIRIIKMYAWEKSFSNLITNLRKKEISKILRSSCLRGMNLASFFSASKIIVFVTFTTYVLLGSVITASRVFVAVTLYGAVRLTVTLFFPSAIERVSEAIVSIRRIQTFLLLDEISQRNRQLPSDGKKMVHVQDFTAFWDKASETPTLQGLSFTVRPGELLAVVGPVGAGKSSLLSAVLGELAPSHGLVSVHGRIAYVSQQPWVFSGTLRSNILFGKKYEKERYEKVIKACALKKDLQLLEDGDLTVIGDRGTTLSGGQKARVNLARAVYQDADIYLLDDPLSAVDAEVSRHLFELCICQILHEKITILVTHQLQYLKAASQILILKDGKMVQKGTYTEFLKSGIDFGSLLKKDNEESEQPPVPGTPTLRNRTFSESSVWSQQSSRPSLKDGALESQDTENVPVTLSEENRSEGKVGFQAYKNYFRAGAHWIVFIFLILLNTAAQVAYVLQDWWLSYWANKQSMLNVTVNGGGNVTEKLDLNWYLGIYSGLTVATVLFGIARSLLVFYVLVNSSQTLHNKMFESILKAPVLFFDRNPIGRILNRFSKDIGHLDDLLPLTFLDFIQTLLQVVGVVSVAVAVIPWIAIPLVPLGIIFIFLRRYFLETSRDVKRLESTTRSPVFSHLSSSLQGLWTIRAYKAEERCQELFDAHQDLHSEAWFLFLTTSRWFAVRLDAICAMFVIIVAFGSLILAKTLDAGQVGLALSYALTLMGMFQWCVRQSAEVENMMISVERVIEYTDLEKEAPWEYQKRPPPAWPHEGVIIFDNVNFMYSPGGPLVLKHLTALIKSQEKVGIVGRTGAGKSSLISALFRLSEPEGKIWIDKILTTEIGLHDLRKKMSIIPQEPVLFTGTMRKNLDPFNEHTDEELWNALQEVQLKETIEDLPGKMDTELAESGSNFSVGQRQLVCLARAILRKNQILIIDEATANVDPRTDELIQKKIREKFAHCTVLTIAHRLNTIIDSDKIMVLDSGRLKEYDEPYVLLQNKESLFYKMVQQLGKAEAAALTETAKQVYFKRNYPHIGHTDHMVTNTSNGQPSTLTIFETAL
Nature of the data set: biochemical. The conditions noted are these: cAMP-efflux, inside-out vesicles; for IC50: 20 µM 3H-cAMP, 60 min; for Ki: ABCC4 Ki. The class given is biochemical. The method, then:
Freshly collected EDTA blood from healthy donors (n = 35) was prepared at 0°C–4°C, starting by separating the erythrocytes from plasma by centrifugation at 2,300 g for approximately 15 min. […] Lysis followed thereafter, with ten volumes of 5 mM Tris-HCl, 0.5 mM EGTA, 4 mM KCl (pH 8.1) and washed by repeated centrifugation at 20,000 g for 20 min and resuspension in the same buffer. Vesiculation was initiated by adding 39 volumes of a […] buffer ([…] Tris-HCl, pH 8.2) to one volume of cell suspension and completed by forcing the solution five times through a 27-gauge syringe needle to promote homogenization of the membranes. […] The resulting IOVs, which still contained ABC-transporters in the membrane, enabled us to control the intracellular environment, in this case the surrounding medium, and collect the cyclic nucleotides within. […] Radioactive labeled (^3H)-cAMP or (^3H)-cGMP (Perkin Elmer, Boston, MA, United States) were added to the incubation solutions in the concentration 20 and 2 μM, respectively, depending on the transporter examined, together with the appointed study drug in concentrations up to 1 mM. […] Next step was to collect the IOVs, which was done by filtration through a nitrocellulose membrane (Bio-Rad Laboratories, Feldkirchen, Germany), and then drying it. The resulting collection of radioactivity upon the filter, was later quantified by using a Packard TopCount NXT (Packard, Downers Grove, IL, United states) after adding scintillation fluid (MicroScint-O, PerkinElmer, Groningen, Netherlands).
IC50 and Ki values were calculated for each of the drugs, both for their ability to inhibit cAMP- and cGMP- efflux, as well as PDE3 and PDE5 activity. […] Inhibition curves were created accordingly, both with and without adjustment for normothermic control.

For orientation: IC50 means the midpoint of a concentration-inhibition curve. High values mean weaker potency in that assay, low ones greater potency in that assay. One may read the Ki as a dissociation constant, usually derived from enzyme kinetics or from competition with a known ligand. Low readings indicate a stronger hold on the target, high ones a looser hold on the target. Take `Cc1[nH]c(=O)c(C#N)cc1-c1ccncc1` [Milrinone]: the “Intracellular access, % of drug concentration per gram protein in the incubation solution” value with erythrocytes (28°C) amounted to 15.06 ± 0.544%; in the data set on erythrocytes (34°C), 11.41 ± 1.675%. The IC50 at ABCC4 (ABCC4 IC50, 28°C) came out at 37.4 ± 24.5 µM; against ABCC4 (ABCC4 IC50, 32°C), 32.9 ± 14.6 µM; against ABCC4 (ABCC4 IC50, 34°C), 67 ± 22.6 µM; against ABCC4 (ABCC4 IC50, 37°C) it was 58.9 ± 13.1 µM. Further, the Ki on ABCC4 (28°C) stood at 22.7 ± 14.9 µM; at ABCC4 (32°C), 20 ± 8.86 µM; on ABCC4 (34°C) it was 40.6 ± 13.7 µM; at ABCC4 (37°C), 35.7 ± 7.94 µM.

Source of the values: PMC9326216, “Treatment of Cardiovascular Dysfunction with PDE3-Inhibitors in Moderate and Severe Hypothermia—Effects on Cellular Elimination of Cyclic Adenosine Monophosphate and Cyclic Guanosine Monophosphate” (Frontiers in Physiology, 2022).
